From US20100056524A1, “Compound” (priority 2008, published 2010) come the findings set out here.

Holding throughout (type): biochemical
For one experiment, the target named is T1, PLK1 (Homo sapiens, UniProt P53350).
T1 construct: All protein kinases were of human origin and encoded full length proteins, unless indicated otherwise; made in house
Description: PLK1 protein kinase assay. The note with it: for remaining activity at 10 µM: 10 μM compound; for residual kinase activity PLK1: 1 μm compound; for remaining activity at 1 µM: 1 μM compound. The source says: (§1) All protein kinases were of human origin and encoded full length proteins, unless indicated otherwise. They were either expressed as glutathione S-transferase (GST) fusion proteins in Escherichia Coli or as hexahistidine (His6)-tagged proteins in insect Sf21 cells. GST fusion proteins were purified by affinity chromatography on glutathione-Sepharose, and His6-tagged proteins on nickel/nitriloacetate-agarose. The procedures for expressing some of the protein kinases used herein have been detailed previously.^8,9 The following sections outline the DNA vectors synthesised and the procedures used to express and purifying protein kinases that have not been reported previously.
(§2) All assays (25.5 μl) were carried out at room temperature (21° C.) and were linear with respect to time and enzyme concentration under the conditions used. Assays were performed for 30 min using Multidrop Micro reagent dispensers (Thermo Electron Corporation, Waltham, Mass. 02454, USA) in a 96-well format. The concentration of magnesium acetate in the assays was 10 mM and the [γ-33P] ATP (800 cpm/pmol) was used at 5, 20 or 50 μM as indicated, in order to be at or below the Km for ATP for each enzyme. Protein kinases assayed at 5 μM ATP were: —ERK1, ERK8, PKBα, MARK3, Aurora C. Protein kinases assayed at 20 μM ATP were: —JNK1, PDK1, CHK1, CHK2, CDK2 and Aurora B. Protein kinases assayed at 50 μM ATP were: —MNK2, IKKepsilon and TBK1.
(§3) The assays were initiated with MgATP, stopped by addition of 5 μl of 0.5 M orthophosphoric acid and spotted on to P81 filterplates using a unifilter harvester (PerkinElmer, Boston, Mass. 02118, USA). The IC50 values of inhibitors were determined after carrying out assays at 10 different concentrations of each compound.
(§4) Unless stated otherwise, enzymes were diluted in 50 mM Tris/HCl pH 7.5, 0.1 mM EGTA, 1 mg/ml BSA, 0.1% (v/v) 2-mercaptoethanol and assayed in 50 mM Tris/HCl pH 7.5, 0.1 mM EGTA, 0.1% (v/v) 2-mercaptoethanol.

A further experiment has as its target T2, PKC zeta (Homo sapiens, UniProt Q05513).
T2 construct: All protein kinases were of human origin and encoded full length proteins, unless indicated otherwise; made in house
T2 sequence (Q05513 1-592): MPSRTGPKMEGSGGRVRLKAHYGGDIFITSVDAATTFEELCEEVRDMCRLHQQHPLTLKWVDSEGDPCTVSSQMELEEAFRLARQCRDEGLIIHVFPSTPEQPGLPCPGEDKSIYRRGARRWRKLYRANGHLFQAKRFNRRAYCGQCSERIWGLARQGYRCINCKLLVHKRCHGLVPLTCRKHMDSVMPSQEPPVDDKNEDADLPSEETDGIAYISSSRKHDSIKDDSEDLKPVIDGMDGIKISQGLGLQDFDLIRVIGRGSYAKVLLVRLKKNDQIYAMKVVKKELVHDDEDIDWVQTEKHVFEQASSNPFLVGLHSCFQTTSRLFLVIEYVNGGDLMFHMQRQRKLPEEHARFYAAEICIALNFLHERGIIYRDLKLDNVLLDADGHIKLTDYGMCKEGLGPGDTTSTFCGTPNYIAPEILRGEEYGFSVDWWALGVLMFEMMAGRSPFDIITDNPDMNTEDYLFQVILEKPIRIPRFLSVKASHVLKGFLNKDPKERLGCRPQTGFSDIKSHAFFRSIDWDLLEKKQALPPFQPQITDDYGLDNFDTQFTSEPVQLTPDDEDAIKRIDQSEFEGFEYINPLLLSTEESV
Description: PKC zeta protein kinase assay. The following applies: for remaining activity at 10 µM: 10 μM compound; for residual kinase activity PKC zeta: 1 μm compound; for remaining activity at 1 µM: 1 μM compound.
Source text: as §1, §2, §3, §4

The next experiment addresses T3, YES1 (Homo sapiens, UniProt P07947).
T3 construct: All protein kinases were of human origin and encoded full length proteins, unless indicated otherwise; made in house
Description: YES1 protein kinase assay. The following applies: for remaining activity at 10 µM: 10 μM compound; for residual kinase activity YES1: 1 μm compound; for remaining activity at 1 µM: 1 μM compound.
Source text: as §1, §2, §3, §4

The target in a further experiment is T4, ERK8 (Homo sapiens, UniProt Q8TD08).
T4 construct: All protein kinases were of human origin and encoded full length proteins, unless indicated otherwise; His6; made in house; host or cells: insect Sf21 cells
T4 sequence (Q8TD08 1-544): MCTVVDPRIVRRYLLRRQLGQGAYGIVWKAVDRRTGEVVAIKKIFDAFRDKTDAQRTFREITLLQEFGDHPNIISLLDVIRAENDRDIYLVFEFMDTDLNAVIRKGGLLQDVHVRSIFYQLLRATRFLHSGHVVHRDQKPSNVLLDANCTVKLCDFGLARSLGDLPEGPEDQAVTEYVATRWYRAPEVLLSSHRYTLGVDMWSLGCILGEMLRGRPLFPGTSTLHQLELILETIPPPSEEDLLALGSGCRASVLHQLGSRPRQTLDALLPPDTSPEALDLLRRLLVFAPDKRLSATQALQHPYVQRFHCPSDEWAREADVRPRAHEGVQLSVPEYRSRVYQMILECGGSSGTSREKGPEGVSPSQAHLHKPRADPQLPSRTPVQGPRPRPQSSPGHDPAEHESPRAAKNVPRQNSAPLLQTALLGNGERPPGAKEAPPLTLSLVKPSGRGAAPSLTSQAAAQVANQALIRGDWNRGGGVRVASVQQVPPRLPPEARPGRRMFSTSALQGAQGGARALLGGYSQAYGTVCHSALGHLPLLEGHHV
Description: ERK8 protein kinase assay. The following applies: for remaining activity at 10 µM: 10 μM compound; for residual kinase activity ERK8: 1 μm compound; for remaining activity at 1 µM: 1 μM compound.
Source text: as §1
The following kinases were expressed in Sf21 cells: Aurora B and Aurora C, extra-cellular signal-regulated kinase 8 (ERK8), microtubule affinity regulating kinase 3 (MARK3), protein kinase Bα[118-480][S473D], protein kinase Bβ (PKBβ[120-481][S474D], 3-phosphoinositide-dependent protein kinase-1 [52-556]
as §2, §3
ERK1 and ERK8 were both assayed against myelin basic protein (MBP, 0.33 mg/ml). MARK3 was assayed against the peptide […] (300 μM), MNK2 against the eIF4E protein (0.5 mg/ml). PKBβ was assayed against the peptide […] (30 μM). TBK1 were assayed against ([…]) (300 μM). The substrates used for other protein kinases were described previously.^8,9
as §4

The target of a further experiment is T5, RSK2 (Homo sapiens, UniProt P51812).
T5 construct: All protein kinases were of human origin and encoded full length proteins, unless indicated otherwise; made in house
T5 sequence (P51812 whole entry): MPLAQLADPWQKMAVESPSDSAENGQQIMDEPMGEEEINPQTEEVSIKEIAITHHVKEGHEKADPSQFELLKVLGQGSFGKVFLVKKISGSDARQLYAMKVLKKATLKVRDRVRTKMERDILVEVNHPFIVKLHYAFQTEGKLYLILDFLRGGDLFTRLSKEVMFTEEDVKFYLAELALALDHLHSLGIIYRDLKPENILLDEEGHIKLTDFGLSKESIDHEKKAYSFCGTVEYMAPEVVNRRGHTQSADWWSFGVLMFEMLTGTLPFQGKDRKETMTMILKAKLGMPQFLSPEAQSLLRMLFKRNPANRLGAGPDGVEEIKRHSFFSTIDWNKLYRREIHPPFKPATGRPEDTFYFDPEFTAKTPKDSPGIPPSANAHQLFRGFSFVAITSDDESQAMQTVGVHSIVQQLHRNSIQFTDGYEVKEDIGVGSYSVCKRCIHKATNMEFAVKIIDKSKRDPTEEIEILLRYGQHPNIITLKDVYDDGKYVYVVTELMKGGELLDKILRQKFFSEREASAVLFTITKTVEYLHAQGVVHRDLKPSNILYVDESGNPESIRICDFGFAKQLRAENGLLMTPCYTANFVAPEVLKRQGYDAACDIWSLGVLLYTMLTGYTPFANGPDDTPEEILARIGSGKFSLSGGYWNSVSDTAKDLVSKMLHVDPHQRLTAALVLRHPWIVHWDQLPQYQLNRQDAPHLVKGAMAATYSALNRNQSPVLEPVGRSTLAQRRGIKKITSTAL
Description: RSK2 protein kinase assay. The following applies: for remaining activity at 10 µM: 10 μM compound; for residual kinase activity RSK2: 1 μm compound; for remaining activity at 1 µM: 1 μM compound.
Source text: as §1, §2, §3, §4

[1] abbreviates: read-out: residual kinase activity PLK1.
Setting [2] is: read-out: residual kinase activity PKC zeta.
Setting [3] is: read-out: residual kinase activity YES1.
Setting [4] is: read-out: residual kinase activity ERK8.
Setting [5] is: read-out: residual kinase activity RSK2.
Where [6] appears, read: PLK1, read-out: residual kinase activity.
Where [7] appears, read: PKC zeta, read-out: residual kinase activity.
The mark [8] stands for this setting: YES1, read-out: residual kinase activity.
Setting [9] is: ERK8, 5 μM ATP, read-out: residual kinase activity.
Where [10] appears, read: RSK2, read-out: residual kinase activity.

Where a name gives a salt, the structure may show the parent alone. Read-outs that look alike come from different tables or passages of the source.

T1 sequence (P53350 whole entry): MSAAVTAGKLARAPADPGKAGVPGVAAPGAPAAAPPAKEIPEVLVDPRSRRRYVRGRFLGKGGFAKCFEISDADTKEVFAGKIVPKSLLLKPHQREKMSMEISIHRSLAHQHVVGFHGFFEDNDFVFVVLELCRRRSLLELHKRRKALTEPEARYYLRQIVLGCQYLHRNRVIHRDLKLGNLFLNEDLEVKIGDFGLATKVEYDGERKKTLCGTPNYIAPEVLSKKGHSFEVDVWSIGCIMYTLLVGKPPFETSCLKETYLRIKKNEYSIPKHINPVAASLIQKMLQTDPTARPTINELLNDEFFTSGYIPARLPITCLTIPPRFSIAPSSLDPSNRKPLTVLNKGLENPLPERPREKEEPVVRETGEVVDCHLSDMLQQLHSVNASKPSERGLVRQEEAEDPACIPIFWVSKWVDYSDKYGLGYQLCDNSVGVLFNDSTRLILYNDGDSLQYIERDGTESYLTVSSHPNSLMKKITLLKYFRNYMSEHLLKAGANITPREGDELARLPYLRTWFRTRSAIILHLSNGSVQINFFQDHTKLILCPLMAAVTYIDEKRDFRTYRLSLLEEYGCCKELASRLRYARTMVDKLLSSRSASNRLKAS
T3 sequence (P07947 whole entry): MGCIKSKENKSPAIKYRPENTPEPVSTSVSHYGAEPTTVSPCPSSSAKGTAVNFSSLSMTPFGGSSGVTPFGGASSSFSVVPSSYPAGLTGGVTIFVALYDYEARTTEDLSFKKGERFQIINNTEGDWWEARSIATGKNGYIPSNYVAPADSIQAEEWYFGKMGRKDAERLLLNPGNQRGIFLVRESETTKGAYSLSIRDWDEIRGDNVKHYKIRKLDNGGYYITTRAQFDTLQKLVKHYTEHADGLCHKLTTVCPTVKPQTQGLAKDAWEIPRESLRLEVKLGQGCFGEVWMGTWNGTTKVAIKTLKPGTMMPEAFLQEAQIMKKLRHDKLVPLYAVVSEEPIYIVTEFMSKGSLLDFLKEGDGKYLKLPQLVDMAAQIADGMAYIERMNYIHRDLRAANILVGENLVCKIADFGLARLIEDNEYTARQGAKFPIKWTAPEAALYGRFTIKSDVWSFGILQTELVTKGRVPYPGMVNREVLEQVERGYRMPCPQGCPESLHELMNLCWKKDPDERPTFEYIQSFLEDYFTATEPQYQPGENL

Regarding `O=C(NCCCNc1nc(Nc2cccc(F)c2)ncc1Br)C1CCC1` [Compound A, cyclobutanecarboxylic acid {3-[5-bromo-2-(3-fluoro-phenylamino)-pyrimidin-4-ylamino]-propyl}-amide, reference compound], the remaining activity at 10 µM on PLK1 (setting [1]) came out at 45%; on PKC zeta (setting [2]), 42%; at YES1 (setting [3]), 8%; at ERK8 (setting [4]), 3%; on RSK2 (setting [5]), 9%. For the same molecule, the “residual kinase activity PLK1” value on PLK1 was determined as 82%. The “residual kinase activity PKC zeta” value at PKC zeta was determined as 90%. Further, the “residual kinase activity YES1” value at YES1 was 36%. Moreover, at ERK8, the “residual kinase activity ERK8” value is reported as 9%. Besides, at RSK2, the “residual kinase activity RSK2” value is 38%.

On to `O=C(NCCCNc1nc(Nc2cccc(N3CCCC3=O)c2)ncc1C1CC1)c1cccs1` [Example 47, Thiophene-2-carboxylic acid (3-{5-cyclopropyl-2-[3-(2-oxo-pyrrolidin-1-yl)-phenylamino]-pyrimidin-4-ylamino}-propyl)-amide. Hydrochloride salt], for which the remaining activity at 1 µM came out at 88% on PLK1 (setting [6]); 80% at PKC zeta (setting [7]); 94% on YES1 (setting [8]); 33% on ERK8 (setting [9]); 65% on RSK2 (setting [10]). Moreover, the remaining activity at 10 µM on PLK1 (setting [6]) is 75%; at PKC zeta (setting [7]), 78%; on YES1 (setting [8]), 74%; at ERK8 (setting [9]), 10%; at RSK2 (setting [10]), 28%.

Take `O=C(NCCCNc1nc(Nc2cccnc2)ncc1C1CC1)c1cccs1` [Example 50, Thiophene-2-carboxylic acid {3-[5-cyclopropyl-2-(pyridin-3-ylamino)-pyrimidin-4-ylamino]-propyl}-amide]: the remaining activity at 1 µM at PLK1 (setting [6]) came out at 101%; at PKC zeta (setting [7]), 84%; at YES1 (setting [8]) it was 82%; on ERK8 (setting [9]), 13%; at RSK2 (setting [10]), 69%. Also, the remaining activity at 10 µM on PLK1 (setting [6]) is 66%; on PKC zeta (setting [7]), 73%; on YES1 (setting [8]), 29%; on ERK8 (setting [9]) it was 5%; at RSK2 (setting [10]), 28%.

As to `O=C(NCCCNc1nc(Nc2cccc(F)c2)ncc1C1CC1)C1CCC1` [Example 23, Cyclobutanecarboxylic acid {3-[5-cyclopropyl-2-(3-fluoro-phenylamino)-pyrimidin-4-ylamino]-propyl}-amide], the remaining activity at 10 µM came out at 62% on PLK1 (setting [1]); 62% on PLK1 (setting [6]); 89% at PKC zeta (setting [2]); 89% at PKC zeta (setting [7]); 22% at YES1 (setting [3]); 22% at YES1 (setting [8]). For the same molecule, the remaining activity at 10 µM on ERK8 (setting [4]) amounted to 6%; at ERK8 (setting [9]), 6%; on RSK2 (setting [5]), 14%; at RSK2 (setting [10]), 14%. For the same molecule, the “residual kinase activity PLK1” value on PLK1 worked out at 90%. Further, the remaining activity at 1 µM is 90% at PLK1 (setting [6]); 99% at PKC zeta (setting [7]); 77% on YES1 (setting [8]); 14% at ERK8 (setting [9]); 44% on RSK2 (setting [10]). Also, at PKC zeta, the “residual kinase activity PKC zeta” value came to 99%. The “residual kinase activity YES1” value on YES1 is on record as 77%. Moreover, the “residual kinase activity ERK8” value at ERK8 was 14%. Moreover, on RSK2, the “residual kinase activity RSK2” value is on record as 44%.
